Reference: patent US20230247994A1, “HETEROCYCLENE DERIVATIVES AS PEST CONTROL AGENTS” (Bayer Aktiengesellschaft, priority 2020, published 2023)

Key:
Assay type in all cases: in vivo
[1] = test system: Diabrotica balteata; test: Diabrotica balteata spray test (germinated wheat grains); conditions: 168 h, application rate 100 g/ha (=32 μg/cavity), after 7 days, beetle larvae on wheat, 100% = all wheat plants grown as in untreated, uninfected control, read-out: efficacy in %
Description: Diabrotica Balteata—Spray Test Solvent: 78 parts by weight of acetone • • 1.5 parts by weight of dimethylformamide Emulsifier: alkylaryl polyglycol ether An appropriate active ingredient formulation is produced by dissolving 1 part by weight of active ingredient with the stated parts by weight of solvent and making the solution up to the desired concentration with water containing an emulsifier concentration of 1000 ppm. Further test concentrations are produced by diluting the formulation with emulsifier-containing water. Pre-swollen wheat grains (Triticum aestivum) are incubated in a multiwell plate filled with agar and a little water for one day (5 seed grains per cavity). The germinated wheat grains are sprayed with an active ingredient formulation of the desired concentration. Subsequently, each cavity is infected with 10-20 beetle larvae of Diabrotica balteata. After 7 days, efficacy in % is determined. 100% means that all wheat plants have grown as in the untreated, uninfected control; 0% means that no wheat plant has grown.

[2] = test system: Nezara viridula; test: Nezara viridula spray test (barley plants); conditions: 96 h, application rate 500 g/ha, larvae, after 4 days, 100% = all shield bugs killed, read-out: efficacy in %
Description: (§1) Nezara viridula—Spray Test Solvent: 78.0 parts by weight of acetone • • 1.5 parts by weight of dimethylformamide Emulsifier: alkylaryl polyglycol ether An appropriate active ingredient formulation is produced by dissolving 1 part by weight of active ingredient with the stated parts by weight of solvent and making the solution up to the desired concentration with water containing an emulsifier concentration of 1000 ppm. Further test concentrations are produced by diluting the formulation with emulsifier-containing water. Barley plants (Hordeum vulgare) are sprayed with an active ingredient formulation of the desired concentration and are infected with larvae of the Southern green shield bug (Nezara viridula). After 4 days, efficacy in % is determined. 100% means that all of the shield bugs have been killed; 0% means that none of the shield bugs have been killed.

[3] = test system: Spodoptera frugiperda; test: Spodoptera frugiperda spray test (maize leaf disks); conditions: foliar, 168 h, caterpillars, after 7 days, 100% = all caterpillars killed, read-out: efficacy in %; for pest or weed control at 100 g/ha: application rate 100 g/ha
Description: Spodoptera frugiuerda—Spray Test
Solvent: 78.0 parts by weight of acetone • • 1.5 parts by weight of dimethylformamide
Emulsifier: alkylaryl polyglycol ether
An appropriate active ingredient formulation is produced by dissolving 1 part by weight of active ingredient with the stated parts by weight of solvent and making the solution up to the desired concentration with water containing an emulsifier concentration of 1000 ppm. Further test concentrations are produced by diluting the formulation with emulsifier-containing water.
Leaf disks of maize (Zea mays) are sprayed with an active ingredient formulation of the desired concentration and, after drying, populated with caterpillars of the fall armyworm (Spodopterafrugiperda).
After 7 days, efficacy in % is determined. 100% means that all of the caterpillars have been killed; 0% means that none of the caterpillars have been killed.

[4] = test system: Myzus persicae; test: Myzus persicae spray test (Chinese cabbage leaf disks); conditions: application rate 100 g/ha, after 5 days, 100% = all aphids killed
Description: as §1, with “Myzus persicae—Spray” for “Nezara viridula—Spray”, “78” for “78.0”, “Leaf disks of Chinese cabbage (Brassica pekinensis) infested by all stages of the green peach aphid (Myzus persicae)” for “Barley plants (Hordeum vulgare)”, “concentration.” for “concentration and are infected with larvae of the Southern green shield bug (Nezara viridula).”, “5” for “4”, “aphids” for “shield bugs”

[5] = test system: Nilaparvata lugens; test: Nilaparvata lugens test (rice plants); conditions: application rate 500 g/ha, spray, after 4 days, 100% = all planthoppers killed
Description: Nilaparvata lugens Test Solvent: 78.0 parts by weight of acetone • • 1.5 parts by weight of dimethylformamide Emulsifier: alkylaryl polyglycol ether An appropriate active ingredient formulation is produced by dissolving 1 part by weight of active ingredient with the stated parts by weight of solvent and making the solution up to the desired concentration with water containing an emulsifier concentration of 1000 ppm. Further test concentrations are produced by diluting the formulation with emulsifier-containing water. Rice plants (Oryza sativa) are sprayed with the active ingredient formulation of the desired concentration and then infected with the brown planthopper (Nilaparvata lugens). After 4 days, efficacy in % is determined. 100% means that all of the planthoppers have been killed; 0% means that none of the planthoppers have been killed.

[6] = test system: Meloidogyne incognita; test: Meloidogyne incognita test (lettuce, gall formation); conditions: application rate 20 ppm, after 14 days, 100% = no galls found
Description: Meloidogyne Incognita Test Solvent: 125.0 parts by weight of acetone An appropriate active ingredient formulation is produced by mixing 1 part by weight of active ingredient with the stated amount of solvent and diluting the concentrate to the desired concentration with water. Vessels are filled with sand, active ingredient solution, an egg/larvae suspension of the southern root-knot nematode (Meloidogyne incognita) and lettuce seeds. The lettuce seeds germinate and the plants develop. The galls develop on the roots. After 14 days, the nematicidal efficacy in % is determined by the formation of galls. 100% means that no galls were found; 0% means that the number of galls on the treated plants corresponds to the untreated control.

[7] = test system: Myzus persicae; test: Myzus persicae oral test; conditions: application rate 20 ppm, after 5 days, 100% = all aphids killed
Method: Myzus persicae—Oral Test Solvent: 100 parts by weight of acetone An appropriate active ingredient formulation is produced by dissolving 1 part by weight of active ingredient with the specified parts by weight of solvent and making the solution up to the desired concentration with water. 50 μl of the active ingredient formulation is transferred into microtiter plates and made up to a final volume of 200 μl with 150 μl of IPL41 insect medium (33%+15% sugar). Subsequently, the plates are sealed with parafilm, which a mixed population of green peach aphids (Myzus persicae) within a second microtiter plate is able to puncture and imbibe the solution. After 5 days, efficacy in % is determined. 100% means that all of the aphids have been killed; 0% means that none of the aphids have been killed.

[8] = test system: Myzus persicae; test: Myzus persicae spray test (bell pepper plants); conditions: application rate 20 ppm, after 6 days, 100% = all aphids killed
Description: Myzus persicae—spray test Solvent: 14 parts by weight of dimethylformamide Emulsifier: alkylaryl polyglycol ether An appropriate active ingredient formulation is produced by dissolving 1 part by weight of active ingredient with the stated parts by weight of solvent and making the solution up to the desired concentration with water containing an emulsifier concentration of 1000 ppm. Further test concentrations are produced by diluting the formulation with emulsifier-containing water. If the addition of ammonium salts or/and penetration enhancers is required, these are each added in a concentration of 1000 ppm to the formulation solution. Bell pepper plants (Capsicum annuum) severely infested with the green peach aphid (Myzus persicae) are treated by spraying with the active ingredient formulation in the desired concentration. After 6 days, the kill in % is determined. 100% means that all of the aphids have been killed; 0% means that none of the aphids have been killed.

Row | Compound | pest or weed control at 100 g/ha [1] [%] | pest or weed control at 500 g/ha [2] [%] | pest or weed control at 100 g/ha [3] [%] | efficacy in % [4] [%] | efficacy in % [5] [%] | nematicidal efficacy in % (formation of galls) [6] [%] | pest or weed control at 500 g/ha ([3]; application rate 500 g/ha) [%] | efficacy in % [7] [%] | kill in % (efficacy) [8] [%]
1 | CCS(=O)(=O)c1c(-c2nc3cc4c(cc3n2C)OC(F)(F)C(F)(F)O4)nc(-c2ccccc2)n1C [Example I-16, 2-[5-(Ethylsulfonyl)-1-methyl-2-phenyl-1H-imidazol-4-yl]-6,6,7,7-tetrafluoro-1-methyl-6,7-dihydro-1H-[1,4]dioxino[2,3-f]benzimidazole] | 100 | 100 | 100 | 90 |  |  |  |  | 
2 | CCS(=O)(=O)c1c(-c2nc3cc4c(cc3n2C)OC(F)(F)C(F)(F)O4)nc(-c2cccc(Br)n2)n1C [Example I-30, 2-[2-(6-Bromopyridin-2-yl)-5-(ethylsulfonyl)-1-methyl-1H-imidazol-4-yl]-6,6,7,7-tetrafluoro-1-methyl-6,7-dihydro-1H-[1,4]dioxino[2,3-f]benzimidazole] | 100 | 100 | 100 |  | 100 |  |  |  | 
3 | CCS(=O)(=O)c1c(-c2nc3cc4c(cc3n2C)OC(F)(F)C(F)(F)O4)nc(-c2cccc(Cl)n2)n1C [Example I-21, 2-[2-(6-Chloropyridin-2-yl)-5-(ethylsulfonyl)-1-methyl-1H-imidazol-4-yl]-6,6,7,7-tetrafluoro-1-methyl-6,7-dihydro-1H-[1,4]dioxino[2,3-f]benzimidazole] | 100 | 100 | 100 |  | 90 |  |  |  | 
4 | CCS(=O)(=O)c1c(-c2nc3cc4c(cc3n2C)OC(F)(F)C(F)(F)O4)nc(-c2ccc(C3(C#N)CC3)cc2)n1C [Example I-6, 1-{4-[5-(Ethylsulfonyl)-1-methyl-4-(6,6,7,7-tetrafluoro-1-methyl-6,7-dihydro-1H-[1,4]dioxino[2,3-f]benzimidazol-2-yl)-1H-imidazol-2-yl]phenyl}cyclopropanecarbonitrile] | 100 | 100 | 100 |  |  | 100 |  |  | 
5 | CCS(=O)(=O)c1c(-c2nc3cc4c(cc3[nH]2)OC(F)(F)C(F)(F)O4)nc(C2CC2)n1C [Example I-8, 2-[2-Cyclopropyl-5-(ethylsulfonyl)-1-methyl-1H-imidazol-4-yl]-6,6,7,7-tetrafluoro-6,7-dihydro-1H-[1,4]dioxino[2,3-f]benzimidazole] | 100 |  |  |  |  | 90 | 100 | 100 | 
6 | CCS(=N)(=O)c1c(-c2nc3cc4c(cc3n2C)OC(F)(F)C(F)(F)O4)nc(-c2ccc(C(F)(F)F)cc2)n1C (centres unmarked) [Example I-37] | 80 |  | 100 |  |  | 90 |  |  | 
7 | CCS(=O)(=O)c1c(-c2nc3cc4c(cc3n2C)OC(F)(F)C(F)(F)O4)nc(C2CC2)n1C [Example I-9, 2-[2-Cyclopropyl-5-(ethylsulfonyl)-1-methyl-1H-imidazol-4-yl]-6,6,7,7-tetrafluoro-1-methyl-6,7-dihydro-1H-[1,4]dioxino[2,3-f]benzimidazole] | 100 |  | 83 |  |  |  |  |  | 99
8 | CCS(=O)(=O)c1c(-c2nc3cc4c(cc3n2C)OC(F)(F)C(F)(F)O4)nc(-c2cccc(F)c2)n1C [Example I-14, 2-[5-(Ethylsulfonyl)-2-(3-fluorophenyl)-1-methyl-1H-imidazol-4-yl]-6,6,7,7-tetrafluoro-1-methyl-6,7-dihydro-1H-[1,4]dioxino[2,3-f]benzimidazole] | 100 | 90 | 100 |  |  |  |  |  | 
9 | CCS(=O)(=O)c1c(-c2nc3cc4c(cc3n2C)OC(F)(F)C(F)(F)O4)nc(-c2ccc(Cl)cc2)n1C [Example I-4, 2-[2-(4-Chlorophenyl)-5-(ethylsulfonyl)-1-methyl-1H-imidazol-4-yl]-6,6,7,7-tetrafluoro-1-methyl-6,7-dihydro-1H-[1,4]dioxino[2,3-f]benzimidazole] | 80 |  | 100 |  |  | 90 |  |  | 
10 | CCS(=N)(=O)c1c(-c2nc3cc4c(cc3n2C)OC(F)(F)C(F)(F)O4)nc(-c2ccc(Cl)cc2)n1C (racemic) [Example I-34, rac-2-[2-(4-Chlorophenyl)-5-(ethylsulfonimidoyl)-1-methyl-1H-imidazol-4-yl]-6,6,7,7-tetrafluoro-1-methyl-6,7-dihydro-1H-[1,4]dioxino[2,3-f]benzimidazole] | 100 |  | 100 | 90 |  | 90 |  |  | 
11 | CCS(=N)(=O)c1c(-c2nc3cc4c(cc3n2C)OC(F)(F)C(F)(F)O4)nc(-c2ccc(F)cc2)n1C (centres unmarked) [Example I-38] | 100 | 90 | 100 | 90 |  | 100 |  |  | 
12 | CCS(=O)(=O)c1c(-c2nc3cc4c(cc3n2C)OC(F)(F)C(F)(F)O4)nc(-c2cccc(C3(C#N)CC3)n2)n1C [Example I-28, 1-{6-[5-(Ethylsulfonyl)-1-methyl-4-(6,6,7,7-tetrafluoro-1-methyl-6,7-dihydro-1H-[1,4]dioxino[2,3-f]benzimidazol-2-yl)-1H-imidazol-2-yl]pyridin-2-yl}cyclopropanecarbonitrile] |  | 100 | 100 |  | 100 |  |  |  | 
